Tests used:
Type in all cases: in vivo
[1] = system: Amaranthus pa/meri (AMAPA); assay: Post-emergence herbicidal glasshouse test; settings: 250 g/ha, sprayed after 8 days cultivation, evaluated after 13 days
Procedure: (§1) Seeds of a variety of test species are sown in standard soil in pots Amaranthus pa/meri (AMAPA), Amaranthus retoflexus (AMARE), Echinochloa crus-gali (ECHCG), Ipomoea hederacea (IPOHE), Setaria faberi (SETFA). After cultivation for one day (pre-emergence) or after 8 days cultivation (post-emergence) under controlled conditions in a glasshouse (at 24/16° C., day/night; 14 hours light; 65% humidity), the plants are sprayed with an aqueous spray solution derived from the formulation of the technical active ingredient in acetone/water (50:50) solution containing 0.5% Tween 20 (polyoxyethelyene sorbitan monolaurate, CAS RN 9005-64-5). Compounds are applied at 250 g/ha unless otherwise stated. The test plants are then grown in a glasshouse under controlled conditions in a glasshouse (at 24/16° C., day/night; 14 hours light; 65% humidity) and watered twice daily. After 13 days for pre and post-emergence, the test is evaluated for the percentage damage caused to the plant. The biological activities are shown in the following table on a five-point scale (5=81-100%; 4=61-80%; 3=41-60%; 2=21-40%; 1=0-20%).

[2] = system: Amaranthus retoflexus (AMARE); assay: Post-emergence herbicidal glasshouse test; settings: 250 g/ha, sprayed after 8 days cultivation, evaluated after 13 days
Procedure: as §1

[3] = system: Echinochloa crus-gali (ECHCG); assay: Post-emergence herbicidal glasshouse test; settings: 250 g/ha, sprayed after 8 days cultivation, evaluated after 13 days
Procedure: as §1

[4] = system: Ipomoea hederacea (IPOHE); assay: Post-emergence herbicidal glasshouse test; settings: 250 g/ha, sprayed after 8 days cultivation, evaluated after 13 days
Procedure: as §1

[5] = system: Amaranthus pa/meri (AMAPA); assay: Pre-emergence herbicidal glasshouse test; settings: 250 g/ha, sprayed after one day cultivation, evaluated after 13 days
Procedure: as §1

[6] = system: Amaranthus retoflexus (AMARE); assay: Pre-emergence herbicidal glasshouse test; settings: 250 g/ha, sprayed after one day cultivation, evaluated after 13 days
Procedure: as §1

[7] = system: Echinochloa crus-gali (ECHCG); assay: Pre-emergence herbicidal glasshouse test; settings: 250 g/ha, sprayed after one day cultivation, evaluated after 13 days
Procedure: as §1

[8] = system: Ipomoea hederacea (IPOHE); assay: Pre-emergence herbicidal glasshouse test; settings: 250 g/ha, sprayed after one day cultivation, evaluated after 13 days
Procedure: as §1

Row | Structure (SMILES) | percentage damage caused to the plant, AMAPA [1] | percentage damage caused to the plant, AMARE [2] | percentage damage caused to the plant, ECHCG [3] | percentage damage caused to the plant, IPOHE [4] | percentage damage caused to the plant, AMAPA [5] | percentage damage caused to the plant, AMARE [6] | percentage damage caused to the plant, ECHCG [7] | percentage damage caused to the plant, IPOHE [8]
1 | CCCCc1nc(C(F)(F)F)cn1Cc1ccc(C#N)cn1 [Compound 1.056] | 2 (2=21-40%) | 2 (2=21-40%) | 1 (1=0-20%) | 2 (2=21-40%) | 4 (4=61-80%) | 4 (4=61-80%) | 1 (1=0-20%) | 2 (2=21-40%)
2 | O=S(=O)(CCC(F)(F)F)c1nc(C(F)F)cn1Cc1ncc(Cl)cn1 [Compound 1.009] | 1 (1=0-20%) | 1 (1=0-20%) | 1 (1=0-20%) | 1 (1=0-20%) | 1 (1=0-20%) | 1 (1=0-20%) | 1 (1=0-20%) | 2 (2=21-40%)
3 | FC(F)c1cn(Cc2ncc(Cl)cn2)c(SCCC(F)(F)F)n1 [Compound 1.012] | 1 (1=0-20%) | 1 (1=0-20%) | 1 (1=0-20%) | 2 (2=21-40%) | 1 (1=0-20%) | 1 (1=0-20%) | 1 (1=0-20%) | 1 (1=0-20%)
4 | C#CCON=CCCc1nc(C(F)(F)F)cn1Cc1ncc(Cl)cn1 (single isomer, unassigned) [Compound 1.028] | 4 (4=61-80%) | 5 (5=81-100%) | 2 (2=21-40%) | 2 (2=21-40%) | 5 (5=81-100%) | 5 (5=81-100%) | 1 (1=0-20%) | 4 (4=61-80%)
5 | O=CCCc1nc(C(F)(F)F)cn1Cc1ncc(Cl)cn1 [Compound 1.013, 3-[1-[(5-chloropyrimidin-2-yl)methyl]-4-(trifluoromethyl)imidazol-2-yl]propanal] | 1 (1=0-20%) | 1 (1=0-20%) | 1 (1=0-20%) | 1 (1=0-20%) | 2 (2=21-40%) | 5 (5=81-100%) | 1 (1=0-20%) | 1 (1=0-20%)
6 | CCCCCc1nc(C(F)(F)F)cn1Cc1ncc(C)cn1 [Compound 1.016] | 1 (1=0-20%) | 2 (2=21-40%) | 1 (1=0-20%) | 2 (2=21-40%) | 5 (5=81-100%) | 5 (5=81-100%) | 1 (1=0-20%) | 2 (2=21-40%)
7 | CCCCc1nc(C(F)(F)F)cn1Cc1ccc(Cl)cn1 [Compound 1.081] | 3 (3=41-60%) | 3 (3=41-60%) | 1 (1=0-20%) | 2 (2=21-40%) | 2 (2=21-40%) | 2 (2=21-40%) | 1 (1=0-20%) | 1 (1=0-20%)
8 | CCCCc1nc(C=NOC)cn1Cc1ncc(Cl)cn1 (single isomer, unassigned) [Compound 1.076, 1-[2-butyl-1-[(5-chloropyrimidin-2-yl)methyl]imidazol-4-yl]-N-methoxy-methanimine] | 1 (1=0-20%) | 1 (1=0-20%) | 1 (1=0-20%) | 1 (1=0-20%) | 1 (1=0-20%) | 1 (1=0-20%) | 1 (1=0-20%) | 1 (1=0-20%)
9 | CCCCc1nc(C(F)(F)F)cn1Cc1ncc(F)cn1 [Compound 1.077, 2-[[2-butyl-4-(trifluoromethyl)imidazol-1-yl]methyl]-5-fluoro-pyrimidine] | 2 (2=21-40%) | 3 (3=41-60%) | 1 (1=0-20%) | 3 (3=41-60%) | 5 (5=81-100%) | 5 (5=81-100%) | 1 (1=0-20%) | 5 (5=81-100%)
10 | CCCCc1nc(C(F)(F)F)cn1Cc1ccc(Cl)cn1 [Compound 1.055] | 1 (1=0-20%) | 1 (1=0-20%) | 1 (1=0-20%) | 1 (1=0-20%) | 1 (1=0-20%) | 1 (1=0-20%) | 1 (1=0-20%) | 3 (3=41-60%)
11 | CCCCc1nc(C(F)F)cn1Cc1ncc(Cl)cn1 [Compound 1.053, 2-[[2-butyl-4-(difluoromethyl)imidazol-1-yl]methyl]-5-chloro-pyrimidine] | 1 (1=0-20%) | 1 (1=0-20%) | 1 (1=0-20%) | 1 (1=0-20%) | 1 (1=0-20%) | 1 (1=0-20%) | 1 (1=0-20%) | 1 (1=0-20%)
12 | CCCCc1nc(C(F)(F)F)cn1Cc1ncc(Cl)cc1F [Compound 1.058] | 3 (3=41-60%) | 4 (4=61-80%) | 4 (4=61-80%) | 4 (4=61-80%) | 5 (5=81-100%) | 5 (5=81-100%) | 5 (5=81-100%) | 5 (5=81-100%)
13 | CCCc1nc(C(F)(F)F)cn1Cc1ncc(Cl)cn1 [Compound 1.042] | 3 (3=41-60%) | 3 (3=41-60%) | 1 (1=0-20%) | 3 (3=41-60%) | 4 (4=61-80%) | 4 (4=61-80%) | 1 (1=0-20%) | 4 (4=61-80%)
14 | COCCc1nc(C(F)(F)F)cn1Cc1ncc(Cl)cn1 [Compound 1.018] | 2 (2=21-40%) | 2 (2=21-40%) | 1 (1=0-20%) | 3 (3=41-60%) | 4 (4=61-80%) | 5 (5=81-100%) | 1 (1=0-20%) | 4 (4=61-80%)

— patent US20260035359A1, “HERBICIDAL IMIDAZOLE COMPOUNDS” (SYNGENTA CROP PROTECTION AG, priority 2022, published 2026)
